Values of other authors, collected in patent US20090005321A1, “Phenylazetidinone Derivatives” (Microbia, Inc., priority 2005, published 2009).

What was measured:
[1] = in humans
[2] = in vivo

fat-soluble vitamin absorption [1]: does not appear to affect
absorption of taurocholic acid [2]: does not inhibit
SMILES: O=C1[C@H](CC[C@H](O)c2ccc(F)cc2)[C@@H](c2ccc(O)cc2)N1c1ccc(F)cc1 [ezetimibe, (3R,4S)-1-(4-fluorophenyl)-3-[(3S)-3-(4-fluorophenyl)-3-hydroxypropyl]-4-(4-hydroxyphenyl)azetidin-2-one]
